The kinase profiling compilation of Christmann-Franck et al. (2016)

Key:
Experiment in all cases: radiometric filter-binding kinase assay, Kinase HotSpot
Conditions in all cases: compound 0.5 µM; ATP 10 µM
CSF1R (human) = CSF1R (human) (UniProt P07333)
DAPK2 (human) = DAPK2 (human) (UniProt Q9UIK4)
PTK6 (human) = PTK6 (human) (UniProt Q13882)
MST4 (human) = MST4 (human) (UniProt Q9P289)
AXL (human) = AXL (human) (UniProt P30530)
STK10 (human) = STK10 (human) (UniProt O94804)
SRPK3 (human) = SRPK3 (human) (UniProt Q9UPE1)
LTK (human) = LTK (human) (UniProt P29376)
JAK2 JH1 JH2 (human) = JAK2 JH1 JH2 (human) (UniProt O60674)
CDK7 CCNH MNAT1 (human) = CDK7 CCNH MNAT1 (human) (UniProt P50613+P51948+P51946)
FGFR4 (human) = FGFR4 (human) (UniProt P22455)
CDK9 CCNK (human) = CDK9 CCNK (human) (UniProt O75909+P50750)
NEK4 (human) = NEK4 (human) (UniProt P51957)
ULK2 (human) = ULK2 (human) (UniProt Q8IYT8)
STK4 (human) = STK4 (human) (UniProt Q13043)
FES (human) = FES (human) (UniProt P07332)
CAMK1D (human) = CAMK1D (human) (UniProt Q8IU85)
CHUK (human) = CHUK (human) (UniProt O15111)
DSTYK (human) = DSTYK (human) (UniProt Q6XUX3)
CAMK2G (human) = CAMK2G (human) (UniProt Q13555)
MAPK14 (human) = MAPK14 (human) (UniProt Q16539)
TAOK3 (human) = TAOK3 (human) (UniProt Q9H2K8)
SYK (human) = SYK (human) (UniProt P43405)
ITK (human) = ITK (human) (UniProt Q08881)
NEK9 (human) = NEK9 (human) (UniProt Q8TD19)
ADRBK1 (human) = ADRBK1 (human) (UniProt P25098)
PIM3 (human) = PIM3 (human) (UniProt Q86V86)
CDK2 CCNE1 (human) = CDK2 CCNE1 (human) (UniProt P24941+P24864)
MINK1 (human) = MINK1 (human) (UniProt Q8N4C8)
DYRK2 (human) = DYRK2 (human) (UniProt Q92630)
ACVRL1 (human) = ACVRL1 (human) (UniProt P37023)
AKT2 (human) = AKT2 (human) (UniProt P31751)
TEK (human) = TEK (human) (UniProt Q02763)
DYRK1A (human) = DYRK1A (human) (UniProt Q13627)
RAF1 (human) = RAF1 (human) (UniProt P04049)
PAK7 (human) = PAK7 (human) (UniProt Q9P286)
BTK (human) = BTK (human) (UniProt Q06187)
MAPK11 (human) = MAPK11 (human) (UniProt Q15759)
INSRR (human) = INSRR (human) (UniProt P14616)
STK3 (human) = STK3 (human) (UniProt Q13188)
MYLK (human) = MYLK (human) (UniProt Q15746)
ERBB4 (human) = ERBB4 (human) (UniProt Q15303)
Chain of ERBB4 (human) (Q15303 whole entry, looked up): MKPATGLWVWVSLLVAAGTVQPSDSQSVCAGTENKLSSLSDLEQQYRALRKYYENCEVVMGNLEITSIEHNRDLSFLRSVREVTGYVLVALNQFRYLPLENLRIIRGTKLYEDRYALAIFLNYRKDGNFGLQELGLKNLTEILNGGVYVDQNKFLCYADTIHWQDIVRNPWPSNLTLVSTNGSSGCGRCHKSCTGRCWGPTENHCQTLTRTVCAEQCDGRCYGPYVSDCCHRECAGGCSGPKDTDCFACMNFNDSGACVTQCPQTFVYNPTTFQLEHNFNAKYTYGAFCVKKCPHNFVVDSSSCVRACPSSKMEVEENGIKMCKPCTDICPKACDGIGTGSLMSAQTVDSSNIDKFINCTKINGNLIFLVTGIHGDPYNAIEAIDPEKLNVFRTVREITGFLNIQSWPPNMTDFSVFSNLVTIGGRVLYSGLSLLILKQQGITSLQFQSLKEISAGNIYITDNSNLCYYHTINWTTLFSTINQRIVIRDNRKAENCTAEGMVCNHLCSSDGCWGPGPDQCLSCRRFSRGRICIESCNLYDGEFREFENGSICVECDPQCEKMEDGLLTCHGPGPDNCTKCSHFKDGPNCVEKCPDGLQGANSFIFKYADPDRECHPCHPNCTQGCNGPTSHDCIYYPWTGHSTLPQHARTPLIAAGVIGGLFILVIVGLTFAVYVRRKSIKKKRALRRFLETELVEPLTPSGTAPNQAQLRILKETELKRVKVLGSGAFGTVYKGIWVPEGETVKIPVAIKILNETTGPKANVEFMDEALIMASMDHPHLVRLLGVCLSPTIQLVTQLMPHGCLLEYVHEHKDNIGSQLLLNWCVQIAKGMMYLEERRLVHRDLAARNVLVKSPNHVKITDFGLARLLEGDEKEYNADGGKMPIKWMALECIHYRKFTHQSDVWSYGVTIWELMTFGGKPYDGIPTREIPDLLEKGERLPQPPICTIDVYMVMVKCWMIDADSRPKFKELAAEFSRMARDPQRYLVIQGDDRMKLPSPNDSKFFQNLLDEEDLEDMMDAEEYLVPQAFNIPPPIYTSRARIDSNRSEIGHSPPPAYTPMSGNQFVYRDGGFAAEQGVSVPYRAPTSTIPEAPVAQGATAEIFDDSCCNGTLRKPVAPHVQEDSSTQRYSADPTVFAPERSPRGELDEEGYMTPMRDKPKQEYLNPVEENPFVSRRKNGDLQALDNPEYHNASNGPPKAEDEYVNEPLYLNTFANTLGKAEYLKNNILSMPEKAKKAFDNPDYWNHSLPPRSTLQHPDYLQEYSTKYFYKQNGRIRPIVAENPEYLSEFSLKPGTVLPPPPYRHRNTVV

Chain of ITK (human) (Q08881 whole entry, looked up): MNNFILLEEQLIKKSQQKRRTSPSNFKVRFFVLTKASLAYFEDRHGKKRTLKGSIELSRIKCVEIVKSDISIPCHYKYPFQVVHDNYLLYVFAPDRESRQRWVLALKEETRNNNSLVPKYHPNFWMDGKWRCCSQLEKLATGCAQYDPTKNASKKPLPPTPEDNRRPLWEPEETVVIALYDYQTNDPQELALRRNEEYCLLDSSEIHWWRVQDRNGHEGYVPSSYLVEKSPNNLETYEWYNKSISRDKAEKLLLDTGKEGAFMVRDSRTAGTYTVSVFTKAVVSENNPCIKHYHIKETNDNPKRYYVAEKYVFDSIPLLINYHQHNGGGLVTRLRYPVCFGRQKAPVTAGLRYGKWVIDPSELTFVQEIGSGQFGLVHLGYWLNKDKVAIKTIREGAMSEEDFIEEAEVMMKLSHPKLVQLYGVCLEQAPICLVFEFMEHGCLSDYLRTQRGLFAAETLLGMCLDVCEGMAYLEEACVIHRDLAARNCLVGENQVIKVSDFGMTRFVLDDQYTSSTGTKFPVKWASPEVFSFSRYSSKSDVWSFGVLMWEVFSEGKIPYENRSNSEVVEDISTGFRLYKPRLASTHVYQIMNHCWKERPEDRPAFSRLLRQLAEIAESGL
Chain of CDK7 CCNH MNAT1 (human) (P50613 whole entry, looked up): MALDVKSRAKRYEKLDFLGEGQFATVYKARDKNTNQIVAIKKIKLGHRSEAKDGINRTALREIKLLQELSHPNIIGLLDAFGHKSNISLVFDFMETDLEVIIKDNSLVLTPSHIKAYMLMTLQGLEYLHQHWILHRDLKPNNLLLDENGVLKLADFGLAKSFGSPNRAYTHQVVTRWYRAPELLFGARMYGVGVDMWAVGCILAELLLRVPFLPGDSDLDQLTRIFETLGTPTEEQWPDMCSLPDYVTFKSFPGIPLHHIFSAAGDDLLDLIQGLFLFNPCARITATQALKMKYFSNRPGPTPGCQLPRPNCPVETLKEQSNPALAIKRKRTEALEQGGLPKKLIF
Chain of CDK7 CCNH MNAT1 (human) (P51946 whole entry, looked up): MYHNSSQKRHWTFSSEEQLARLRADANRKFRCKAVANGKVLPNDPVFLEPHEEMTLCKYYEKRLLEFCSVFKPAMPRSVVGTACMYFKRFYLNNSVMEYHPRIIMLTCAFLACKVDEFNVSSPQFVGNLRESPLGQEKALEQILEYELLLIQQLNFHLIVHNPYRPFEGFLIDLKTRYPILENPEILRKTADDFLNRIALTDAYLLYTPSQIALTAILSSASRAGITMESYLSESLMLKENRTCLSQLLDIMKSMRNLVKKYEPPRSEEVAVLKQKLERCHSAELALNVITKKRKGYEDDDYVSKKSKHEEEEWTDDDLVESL
Chain of CDK7 CCNH MNAT1 (human) (P51948 whole entry, looked up): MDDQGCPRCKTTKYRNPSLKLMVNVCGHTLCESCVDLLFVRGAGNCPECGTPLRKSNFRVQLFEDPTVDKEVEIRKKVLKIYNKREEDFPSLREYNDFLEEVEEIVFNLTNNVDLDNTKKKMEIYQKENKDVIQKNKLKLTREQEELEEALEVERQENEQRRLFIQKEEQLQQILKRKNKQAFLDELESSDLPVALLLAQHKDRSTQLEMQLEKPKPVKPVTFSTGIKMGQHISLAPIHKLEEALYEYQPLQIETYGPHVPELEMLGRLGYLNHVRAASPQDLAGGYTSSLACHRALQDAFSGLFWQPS
Chain of FES (human) (P07332 whole entry, looked up): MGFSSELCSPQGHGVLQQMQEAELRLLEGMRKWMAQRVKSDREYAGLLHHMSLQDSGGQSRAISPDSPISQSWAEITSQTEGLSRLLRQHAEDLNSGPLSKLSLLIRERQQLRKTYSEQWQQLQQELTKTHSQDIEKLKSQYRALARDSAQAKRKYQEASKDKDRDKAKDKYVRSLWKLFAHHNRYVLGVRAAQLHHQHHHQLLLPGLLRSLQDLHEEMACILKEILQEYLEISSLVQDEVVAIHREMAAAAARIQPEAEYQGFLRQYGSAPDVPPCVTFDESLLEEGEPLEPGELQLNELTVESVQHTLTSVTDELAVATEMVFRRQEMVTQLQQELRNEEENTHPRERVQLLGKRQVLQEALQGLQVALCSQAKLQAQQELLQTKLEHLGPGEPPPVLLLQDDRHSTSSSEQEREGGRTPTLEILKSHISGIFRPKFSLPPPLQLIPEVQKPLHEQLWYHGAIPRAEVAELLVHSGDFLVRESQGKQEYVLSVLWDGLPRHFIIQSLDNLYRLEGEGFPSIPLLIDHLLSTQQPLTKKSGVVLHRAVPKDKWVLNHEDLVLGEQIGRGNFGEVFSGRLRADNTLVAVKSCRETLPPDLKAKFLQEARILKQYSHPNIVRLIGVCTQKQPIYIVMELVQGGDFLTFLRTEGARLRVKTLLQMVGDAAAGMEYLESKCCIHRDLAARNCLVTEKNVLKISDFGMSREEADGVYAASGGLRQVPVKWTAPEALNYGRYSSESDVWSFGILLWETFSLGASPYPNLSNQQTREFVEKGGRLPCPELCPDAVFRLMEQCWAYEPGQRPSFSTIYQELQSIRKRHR
Chain of CAMK1D (human) (Q8IU85 whole entry, looked up): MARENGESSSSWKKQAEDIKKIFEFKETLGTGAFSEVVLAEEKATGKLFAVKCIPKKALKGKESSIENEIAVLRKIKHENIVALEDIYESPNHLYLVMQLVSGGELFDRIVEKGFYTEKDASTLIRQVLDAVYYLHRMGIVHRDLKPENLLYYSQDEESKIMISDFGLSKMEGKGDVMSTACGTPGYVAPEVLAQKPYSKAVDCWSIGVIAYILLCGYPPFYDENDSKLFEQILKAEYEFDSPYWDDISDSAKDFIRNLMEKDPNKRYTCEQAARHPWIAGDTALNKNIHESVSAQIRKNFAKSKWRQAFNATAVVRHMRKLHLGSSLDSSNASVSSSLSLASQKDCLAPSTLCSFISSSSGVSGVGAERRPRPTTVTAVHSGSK
Chain of SRPK3 (human) (Q9UPE1 whole entry, looked up): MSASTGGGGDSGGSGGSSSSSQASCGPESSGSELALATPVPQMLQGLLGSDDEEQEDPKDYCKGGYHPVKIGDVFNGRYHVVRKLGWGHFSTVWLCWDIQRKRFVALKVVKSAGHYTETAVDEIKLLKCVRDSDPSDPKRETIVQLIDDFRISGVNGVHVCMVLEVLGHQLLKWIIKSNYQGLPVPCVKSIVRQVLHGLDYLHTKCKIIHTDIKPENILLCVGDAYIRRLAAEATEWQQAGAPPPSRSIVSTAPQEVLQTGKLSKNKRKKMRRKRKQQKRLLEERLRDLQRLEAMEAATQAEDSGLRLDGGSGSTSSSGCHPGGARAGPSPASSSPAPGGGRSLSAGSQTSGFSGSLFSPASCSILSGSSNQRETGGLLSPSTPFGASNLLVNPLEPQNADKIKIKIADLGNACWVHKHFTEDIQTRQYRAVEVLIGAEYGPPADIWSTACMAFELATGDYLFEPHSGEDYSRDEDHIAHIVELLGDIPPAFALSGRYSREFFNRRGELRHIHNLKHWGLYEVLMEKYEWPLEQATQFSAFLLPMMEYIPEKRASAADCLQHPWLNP

Work on `CCCNC(=O)Nc1ccc(Oc2ncnc3cc(OC)c(OC)cc23)cc1Cl` yielded a residual activity (CSF1R (human)) of 51.1%, a residual activity (DAPK2 (human)) of 108% and a residual activity (PTK6 (human)) of 48.3%. For the same molecule, the residual activity (MST4 (human)) was 86.9%, the residual activity (AXL (human)) was 101% and the residual activity (STK10 (human)) was 35%. The residual activity (SRPK3 (human)) was 95.8%, the residual activity (LTK (human)) was 95.7% and the residual activity (JAK2 JH1 JH2 (human)) was 96.9%. For the same molecule, the residual activity (CDK7 CCNH MNAT1 (human)) was 119%, the residual activity (FGFR4 (human)) was 73.9% and the residual activity (CDK9 CCNK (human)) was 103%. The residual activity (NEK4 (human)) was 76%, the residual activity (ULK2 (human)) was 89.2% and the residual activity (STK4 (human)) was 92.8%. For the same molecule, the residual activity (FES (human)) was 96%, the residual activity (CAMK1D (human)) was 96.8% and the residual activity (CHUK (human)) was 84.9%. The residual activity (DSTYK (human)) was 88.6%, the residual activity (CAMK2G (human)) was 90.5% and the residual activity (MAPK14 (human)) was 122%. It also gave a residual activity (TAOK3 (human)) of 95.9%, a residual activity (SYK (human)) of 97.5% and a residual activity (ITK (human)) of 96.9%. It also gave a residual activity (NEK9 (human)) of 83.3%, a residual activity (ADRBK1 (human)) of 103% and a residual activity (PIM3 (human)) of 81.3%. For the same molecule, the residual activity (CDK2 CCNE1 (human)) was 95.2%, the residual activity (MINK1 (human)) was 90.1% and the residual activity (DYRK2 (human)) was 108%. For the same molecule, the residual activity (ACVRL1 (human)) was 100%, the residual activity (AKT2 (human)) was 89.7% and the residual activity (TEK (human)) was 87%. For the same molecule, the residual activity (DYRK1A (human)) was 96.9%, the residual activity (RAF1 (human)) was 85.4% and the residual activity (PAK7 (human)) was 84.5%. It also gave a residual activity (BTK (human)) of 98.6%, a residual activity (MAPK11 (human)) of 88.5% and a residual activity (INSRR (human)) of 98.4%. The residual activity (STK3 (human)) was 85% and the residual activity (MYLK (human)) was 97.4%.
`O=c1cc(N2CCNCC2)oc2c(-c3ccccc3)cccc12` showed a residual activity (CSF1R (human)) of 108%, a residual activity (DAPK2 (human)) of 94% and a residual activity (PTK6 (human)) of 99.2%. It also gave a residual activity (MST4 (human)) of 96.3%, a residual activity (AXL (human)) of 117% and a residual activity (STK10 (human)) of 94.3%. It also gave a residual activity (SRPK3 (human)) of 94.4%, a residual activity (LTK (human)) of 96.9% and a residual activity (JAK2 JH1 JH2 (human)) of 104%. It also gave a residual activity (ERBB4 (human)) of 104%, a residual activity (CDK7 CCNH MNAT1 (human)) of 99.3% and a residual activity (FGFR4 (human)) of 106%. For the same molecule, the residual activity (CDK9 CCNK (human)) was 94.2%, the residual activity (NEK4 (human)) was 86.4% and the residual activity (ULK2 (human)) was 108%. The residual activity (STK4 (human)) was 88.7%, the residual activity (FES (human)) was 95.4% and the residual activity (CAMK1D (human)) was 82%. For the same molecule, the residual activity (CHUK (human)) was 103%, the residual activity (DSTYK (human)) was 92.8% and the residual activity (CAMK2G (human)) was 102%. The residual activity (MAPK14 (human)) was 82.8%, the residual activity (TAOK3 (human)) was 92.8% and the residual activity (SYK (human)) was 104%. The residual activity (ITK (human)) was 88.1%, the residual activity (NEK9 (human)) was 102% and the residual activity (ADRBK1 (human)) was 109%. The residual activity (PIM3 (human)) was 93.5%, the residual activity (CDK2 CCNE1 (human)) was 91.6% and the residual activity (MINK1 (human)) was 97%. It also gave a residual activity (DYRK2 (human)) of 96.8%, a residual activity (ACVRL1 (human)) of 106% and a residual activity (AKT2 (human)) of 100%. For the same molecule, the residual activity (TEK (human)) was 95%, the residual activity (DYRK1A (human)) was 96.8% and the residual activity (RAF1 (human)) was 94.2%. The residual activity (PAK7 (human)) was 104%, the residual activity (BTK (human)) was 85.7% and the residual activity (MAPK11 (human)) was 105%. It also gave a residual activity (INSRR (human)) of 89.2%, a residual activity (STK3 (human)) of 102% and a residual activity (MYLK (human)) of 105%.
Molecule `CSc1nc(-c2ccc(F)cc2)c(-c2ccnc(NC(C)c3ccccc3)c2)[nH]1` (configuration not stated) has a residual activity (CSF1R (human)) of 104%, a residual activity (DAPK2 (human)) of 101% and a residual activity (PTK6 (human)) of 96.8%. It also gave a residual activity (MST4 (human)) of 101%, a residual activity (AXL (human)) of 109% and a residual activity (STK10 (human)) of 86.8%. For the same molecule, the residual activity (SRPK3 (human)) was 92.8%, the residual activity (LTK (human)) was 83.6% and the residual activity (JAK2 JH1 JH2 (human)) was 102%. It also gave a residual activity (ERBB4 (human)) of 98.4%, a residual activity (CDK7 CCNH MNAT1 (human)) of 97.2% and a residual activity (FGFR4 (human)) of 102%. For the same molecule, the residual activity (CDK9 CCNK (human)) was 91.1%, the residual activity (NEK4 (human)) was 102% and the residual activity (ULK2 (human)) was 94.1%. The residual activity (STK4 (human)) was 89.8%, the residual activity (FES (human)) was 93.8% and the residual activity (CAMK1D (human)) was 91.7%. For the same molecule, the residual activity (CHUK (human)) was 98.4%, the residual activity (DSTYK (human)) was 102% and the residual activity (CAMK2G (human)) was 102%. It also gave a residual activity (MAPK14 (human)) of 7.64%, a residual activity (TAOK3 (human)) of 91.7% and a residual activity (SYK (human)) of 96.8%. The residual activity (ITK (human)) was 91.6%, the residual activity (NEK9 (human)) was 89.4% and the residual activity (ADRBK1 (human)) was 102%. It also gave a residual activity (PIM3 (human)) of 95.5%, a residual activity (CDK2 CCNE1 (human)) of 88% and a residual activity (MINK1 (human)) of 89.6%. It also gave a residual activity (DYRK2 (human)) of 96.1%, a residual activity (ACVRL1 (human)) of 92.2% and a residual activity (AKT2 (human)) of 96.8%. For the same molecule, the residual activity (TEK (human)) was 90.5%, the residual activity (DYRK1A (human)) was 97.9% and the residual activity (RAF1 (human)) was 88.9%. For the same molecule, the residual activity (PAK7 (human)) was 85.3%, the residual activity (BTK (human)) was 76.6% and the residual activity (MAPK11 (human)) was 41.7%. It also gave a residual activity (INSRR (human)) of 98.9%, a residual activity (STK3 (human)) of 88.8% and a residual activity (MYLK (human)) of 100%.
In the case of `CC(C)n1cnc2c(Nc3cccc(Cl)c3)nc(NCCO)nc21`, the residual activity (CSF1R (human)) is reported as 94.8%, the residual activity (DAPK2 (human)) is reported as 92.8% and the residual activity (PTK6 (human)) is reported as 90.2%. It also gave a residual activity (MST4 (human)) of 87.9%, a residual activity (AXL (human)) of 91.3% and a residual activity (STK10 (human)) of 86.9%. For the same molecule, the residual activity (SRPK3 (human)) was 47.7%, the residual activity (LTK (human)) was 85.3% and the residual activity (JAK2 JH1 JH2 (human)) was 101%. The residual activity (ERBB4 (human)) was 101%, the residual activity (CDK7 CCNH MNAT1 (human)) was 78.5% and the residual activity (FGFR4 (human)) was 86.5%. For the same molecule, the residual activity (CDK9 CCNK (human)) was 86.9%, the residual activity (NEK4 (human)) was 89.1% and the residual activity (ULK2 (human)) was 89%. For the same molecule, the residual activity (STK4 (human)) was 93.1%, the residual activity (FES (human)) was 66.2% and the residual activity (CAMK1D (human)) was 98.1%. For the same molecule, the residual activity (CHUK (human)) was 96.1%, the residual activity (DSTYK (human)) was 97% and the residual activity (CAMK2G (human)) was 106%. The residual activity (MAPK14 (human)) was 90.7%, the residual activity (TAOK3 (human)) was 91.8% and the residual activity (SYK (human)) was 85.1%. The residual activity (ITK (human)) was 96%, the residual activity (NEK9 (human)) was 81.1% and the residual activity (ADRBK1 (human)) was 96%. It also gave a residual activity (PIM3 (human)) of 90.4%, a residual activity (CDK2 CCNE1 (human)) of 37.2% and a residual activity (MINK1 (human)) of 86.3%. It also gave a residual activity (DYRK2 (human)) of 93.9%, a residual activity (ACVRL1 (human)) of 103% and a residual activity (AKT2 (human)) of 92.4%. It also gave a residual activity (TEK (human)) of 97.4%, a residual activity (DYRK1A (human)) of 88.6% and a residual activity (RAF1 (human)) of 105%. For the same molecule, the residual activity (PAK7 (human)) was 80.4%, the residual activity (BTK (human)) was 86.3% and the residual activity (MAPK11 (human)) was 92.2%. The residual activity (INSRR (human)) was 82.5%, the residual activity (STK3 (human)) was 94.6% and the residual activity (MYLK (human)) was 87.8%.
